Results published in PubChem BioAssay AID248 (DTP/NCI, 2004).
Inconclusive results and toxic doses are left out. Rule as the data show it: active = T/C of 150% or more; inactive = T/C below 125%.

Test system: L1210 leukemia ip in BDF1 mice, survival T/C
Experiment: NCI In Vivo Anticancer Drug Screen. Data for tumor model L1210 Leukemia (intraperitoneal) in B6D2F1 (BDF1) mice
Settings: endpoint: mean survival time, higher = longer survival
Summary of the method: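 In this screen, tumor-bearing mice given compound are compared to those given vehicle, and their survival values are reported as a treated-to-control quotient.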

[1] = dose: 100.0 mg/kg/injection, schedule: Q01DX001 (ip), vehicle: Klucel (hydroxypropylcellulose) (HPC)
[2] = dose: 200.0 mg/kg/injection, schedule: Q01DX001 (ip), vehicle: Klucel (hydroxypropylcellulose) (HPC)
[3] = dose: 400.0 mg/kg/injection, schedule: Q01DX001 (ip), vehicle: Klucel (hydroxypropylcellulose) (HPC)
[4] = dose: 200.0 mg/kg/injection, schedule: Q04DX003 (ip), vehicle: Klucel (hydroxypropylcellulose) (HPC)
[5] = dose: 400.0 mg/kg/injection, schedule: Q04DX003 (ip), vehicle: Klucel (hydroxypropylcellulose) (HPC)
[6] = dose: 200.0 mg/kg/injection, schedule: Q01DX001 (ip), vehicle: saline
[7] = dose: 400.0 mg/kg/injection, schedule: Q01DX001 (ip), vehicle: saline
[8] = dose: 100.0 mg/kg/injection, schedule: Q04DX003 (ip), vehicle: acetone
[9] = dose: 100.0 mg/kg/injection, schedule: Q04DX003 (ip), vehicle: Klucel (hydroxypropylcellulose) (HPC)
[10] = dose: 100.0 mg/kg/injection, schedule: Q01DX001 (ip), vehicle: carboxymethylcellulose (CMC)
[11] = dose: 400.0 mg/kg/injection, schedule: Q01DX001 (ip), vehicle: carboxymethylcellulose (CMC)

Measured: T/C

CC(C)(C)NC(=O)NCc1cccnc1
inactive: dose: 100.0 mg/kg/injection, schedule: Q01DX009 (ip), vehicle: saline sonified 97 % of control | dose: 100.0 mg/kg/injection, schedule: Q04DX003 (ip), vehicle: saline sonified 100 % of control | dose: 200.0 mg/kg/injection, schedule: Q01DX009 (ip), vehicle: saline sonified 100 % of control | dose: 200.0 mg/kg/injection, schedule: Q04DX003 (ip), vehicle: saline sonified 87 % of control | dose: 400.0 mg/kg/injection, schedule: Q01DX009 (ip), vehicle: saline sonified 105 % of control | dose: 400.0 mg/kg/injection, schedule: Q04DX003 (ip), vehicle: saline sonified 94 % of control

O=C(O)CC(=O)c1cccc([N+](=O)[O-])c1
inactive: [1] 104 % of control | [2] 97 % of control | [3] 96 % of control

CCS(=O)(=O)C(S(=O)(=O)CC)S(=O)(=O)CC
inactive: [1] 102 % of control | [2] 91 % of control | [3] 96 % of control

COC(C)C(Br)C(=O)O (stereo unspecified)
inactive: dose: 50.0 mg/kg/injection, schedule: Q01DX009 (ip), vehicle: saline 98 % of control | dose: 100.0 mg/kg/injection, schedule: Q01DX009 (ip), vehicle: saline 95 % of control | dose: 100.0 mg/kg/injection, schedule: Q04DX003 (ip), vehicle: saline 88 % of control | dose: 200.0 mg/kg/injection, schedule: Q01DX009 (ip), vehicle: saline 90 % of control | dose: 200.0 mg/kg/injection, schedule: Q04DX003 (ip), vehicle: saline 90 % of control

O=C1CC(c2ccccc2)=CN1c1ccc2ccccc2c1
inactive: dose: 100.0 mg/kg/injection, schedule: Q04DX002 (ip), vehicle: Klucel (hydroxypropylcellulose) (HPC) 100 % of control | dose: 200.0 mg/kg/injection, schedule: Q04DX002 (ip), vehicle: Klucel (hydroxypropylcellulose) (HPC) 89 % of control | dose: 400.0 mg/kg/injection, schedule: Q04DX002 (ip), vehicle: Klucel (hydroxypropylcellulose) (HPC) 100 % of control

Cc1ccc(S/C(=C/c2ccccc2)C(N)=O)cc1
inactive: [4] 93 % of control | [5] 95 % of control

C[n+]1c(-c2cccc3ccccc23)c2cc([N+](=O)[O-])ccc2c2ccccc21
inactive: dose: 6.25 mg/kg/injection, schedule: Q01DX009 (ip), vehicle: water 104 % of control | dose: 12.5 mg/kg/injection, schedule: Q01DX009 (ip), vehicle: water 100 % of control | dose: 12.5 mg/kg/injection, schedule: Q04DX003 (ip), vehicle: water 98 % of control | dose: 25.0 mg/kg/injection, schedule: Q04DX003 (ip), vehicle: water 105 % of control | dose: 50.0 mg/kg/injection, schedule: Q04DX003 (ip), vehicle: water 93 % of control

Cc1ccc(NC(=O)N(O)C2CCCCC2C#N)cc1 (stereo unspecified)
inactive: [6] 96 % of control | [7] 91 % of control

O=C(O)C1(C(=O)O)CC2CC=CCC2C1 (stereo unspecified)
inactive: dose: 100.0 mg/kg/injection, schedule: Q01DX001 (ip), vehicle: acetone 97 % of control | [8] 100 % of control | dose: 200.0 mg/kg/injection, schedule: Q01DX001 (ip), vehicle: acetone 101 % of control | dose: 200.0 mg/kg/injection, schedule: Q04DX003 (ip), vehicle: acetone 104 % of control | dose: 400.0 mg/kg/injection, schedule: Q01DX001 (ip), vehicle: acetone 95 % of control | dose: 400.0 mg/kg/injection, schedule: Q04DX003 (ip), vehicle: acetone 98 % of control

CC(=O)Nc1nc(-c2ccc([N+](=O)[O-])cc2)c(CCC=O)c(=O)[nH]1
inactive: dose: 100.0 mg/kg/injection, schedule: Q01DX009 (ip), vehicle: Klucel (hydroxypropylcellulose) (HPC) 88 % of control | [9] 90 % of control | dose: 200.0 mg/kg/injection, schedule: Q01DX009 (ip), vehicle: Klucel (hydroxypropylcellulose) (HPC) 94 % of control | [4] 98 % of control | dose: 400.0 mg/kg/injection, schedule: Q01DX009 (ip), vehicle: Klucel (hydroxypropylcellulose) (HPC) 102 % of control | [5] 98 % of control

c1ccc(-c2cc(-c3ccccc3)c(-c3ccccc3)c(-c3ccccc3)c2)cc1
inactive: dose: 50.0 mg/kg/injection, schedule: Q01DX001 (ip), vehicle: saline 100 % of control | dose: 100.0 mg/kg/injection, schedule: Q01DX001 (ip), vehicle: saline 100 % of control | [6] 100 % of control | [7] 100 % of control

Cc1ccc(C(=O)c2ccccc2)c(C)c1
inactive: [10] 86 % of control | [11] 92 % of control

O=C(NC(=S)Nc1ccccn1)c1ccccc1
inactive: dose: 25.0 mg/kg/injection, schedule: Q04DX002 (ip), vehicle: other 102 % of control | dose: 50.0 mg/kg/injection, schedule: Q04DX002 (ip), vehicle: other 100 % of control | dose: 100.0 mg/kg/injection, schedule: Q04DX002 (ip), vehicle: other 105 % of control | dose: 200.0 mg/kg/injection, schedule: Q04DX002 (ip), vehicle: other 86 % of control

COc1ccc(/C=C(/C(=O)O)c2ccc(OC)cc2)cc1
inactive: dose: 100.0 mg/kg/injection, schedule: Q04DX003 (ip), vehicle: other 98 % of control | dose: 200.0 mg/kg/injection, schedule: Q04DX003 (ip), vehicle: other 95 % of control | dose: 400.0 mg/kg/injection, schedule: Q04DX003 (ip), vehicle: other 95 % of control

O=C(CCl)Nc1ccc(S(=O)(=O)F)cc1
inactive: dose: 12.5 mg/kg/injection, schedule: Q01DX009 (ip), vehicle: carboxymethylcellulose (CMC) 93 % of control | dose: 25.0 mg/kg/injection, schedule: Q01DX009 (ip), vehicle: carboxymethylcellulose (CMC) 88 % of control | dose: 50.0 mg/kg/injection, schedule: Q01DX009 (ip), vehicle: carboxymethylcellulose (CMC) 88 % of control | dose: 100.0 mg/kg/injection, schedule: Q04DX003 (ip), vehicle: carboxymethylcellulose (CMC) 96 % of control

Cc1cccc(NC(=O)Nc2ccc(Cl)cc2)c1C
inactive: dose: 100.0 mg/kg/injection, schedule: Q01DX009 (ip), vehicle: gum acacia 100 % of control | dose: 100.0 mg/kg/injection, schedule: Q04DX003 (ip), vehicle: gum acacia 95 % of control | dose: 200.0 mg/kg/injection, schedule: Q01DX009 (ip), vehicle: gum acacia 100 % of control | dose: 200.0 mg/kg/injection, schedule: Q04DX003 (ip), vehicle: gum acacia 95 % of control | dose: 400.0 mg/kg/injection, schedule: Q01DX009 (ip), vehicle: gum acacia 92 % of control | dose: 400.0 mg/kg/injection, schedule: Q04DX003 (ip), vehicle: gum acacia 97 % of control

C#CC(C)OCC(C)OC (stereo unspecified)
inactive: dose: 25.0 mg/kg/injection, schedule: Q01DX009 (ip), vehicle: acetone 97 % of control | dose: 50.0 mg/kg/injection, schedule: Q01DX009 (ip), vehicle: acetone 103 % of control | [8] 102 % of control

Oc1ccc(N=C/C=C/c2ccccc2)cc1
inactive: [10] 86 % of control | dose: 200.0 mg/kg/injection, schedule: Q01DX001 (ip), vehicle: carboxymethylcellulose (CMC) 89 % of control | [11] 91 % of control

CS(=O)(=O)Oc1ccccc1N(S(C)(=O)=O)S(C)(=O)=O
inactive: [1] 107 % of control | [9] 107 % of control | [2] 110 % of control | [4] 107 % of control | [3] 104 % of control | [5] 102 % of control
